Reference: US9029359B2, “Heteroaryl Btk inhibitors” (Biogen Idec MA, Inc., priority 2009, dated 2015)

target: T1, BTK (Homo sapiens, UniProt Q06187); assay: In vitro BTK kinase assay: BTK-POLYGAT-LS ASSAY; type: biochemical; details: ATP 10 uM
T1 construct: purchased Upstate 14-552
Protocol: In vitro BTK kinase assay: BTK-POLYGAT-LS ASSAY. The purpose of the BTK in vitro assay is to determine compound potency against BTK through the measurement of IC50. […] A 24 μL aliquot of a ATP/peptide master mix (final concentration; ATP 10 μM, polyGAT 100 nM) in kinase buffer (10 mM Tris-HCl pH 7.5, 10 mM MgCl2, 200 μM Na3VO4, 5 mM DTT, 0.01% Triton X-100, and 0.2 mg/ml Casein) is added to each well. […] The assay is incubated for 30 minutes before being stopped with 28 μL of a 50 mM EDTA solution. […] The plate is covered and incubated for 45 minutes at room temperature. Time resolved fluorescence (TRF) on Molecular Devices M5 (332 nm excitation; 488 nm emission; 518 nm fluorescein emission) is measured.

T1 sequence (Q06187 whole entry): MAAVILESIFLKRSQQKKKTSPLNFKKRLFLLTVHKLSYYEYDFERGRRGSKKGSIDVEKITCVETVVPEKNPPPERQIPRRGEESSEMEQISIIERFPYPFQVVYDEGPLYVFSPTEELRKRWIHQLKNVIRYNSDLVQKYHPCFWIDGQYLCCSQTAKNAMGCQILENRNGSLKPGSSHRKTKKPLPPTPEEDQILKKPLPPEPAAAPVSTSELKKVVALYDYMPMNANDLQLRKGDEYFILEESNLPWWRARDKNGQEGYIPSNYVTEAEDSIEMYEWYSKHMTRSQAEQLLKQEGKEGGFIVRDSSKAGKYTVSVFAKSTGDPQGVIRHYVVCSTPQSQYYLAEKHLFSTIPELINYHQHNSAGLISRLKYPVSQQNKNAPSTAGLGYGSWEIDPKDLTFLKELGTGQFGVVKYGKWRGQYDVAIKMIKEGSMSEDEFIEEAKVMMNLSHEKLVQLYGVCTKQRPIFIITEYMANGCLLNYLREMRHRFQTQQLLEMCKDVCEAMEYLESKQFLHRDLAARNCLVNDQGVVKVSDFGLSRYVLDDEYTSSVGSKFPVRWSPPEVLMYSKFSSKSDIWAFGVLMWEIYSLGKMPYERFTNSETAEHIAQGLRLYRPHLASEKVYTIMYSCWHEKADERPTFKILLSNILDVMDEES

SMILES	IC50
O=C(CNC(=O)c1ccc2ccccc2c1)NC1CCCN(c2ncnc3[nH]ccc23)C1 (centres unmarked) [Example 98]	100 to 999 nM
O=C(CNc1cccc(-c2cn3ccccc3n2)c1)N[C@@H]1CCCN(c2ncnc3[nH]ccc23)C1 [Example 304]	100 to 999 nM
Cc1cccc(Cl)c1NCC(=O)N[C@@H]1CCCN(c2ncnc3[nH]ccc23)C1 [Example 407]	1000 to 10000 nM
Cc1ccc(Cl)cc1NCC(=O)N[C@@H]1CCCN(c2ncnc3[nH]ccc23)C1 [Example 295]	100 to 999 nM
C[C@H](O)[C@@H](Nc1cc(Cl)cc(Cl)c1)C(=O)N[C@@H]1CCCN(c2ncnc3[nH]ccc23)C1 [Example 181]	< 100 nM
CC(C)(C)[C@@H](Nc1cc(F)cc(Cl)c1)C(=O)N[C@@H]1CCCN(c2ncnc3[nH]ncc23)C1 [Example 200]	< 100 nM
C[C@@H](O)[C@@H](Nc1cc(F)cc(Cl)c1)C(=O)N[C@@H]1CCCN(c2ncnc3[nH]ncc23)C1 [Example 171]	< 100 nM
O=C(CNc1ccccc1N1CCOCC1)N[C@@H]1CCCN(c2ncnc3[nH]ccc23)C1 [Example 444]	1000 to 10000 nM
Cc1ccc(C)n1-c1cccc(NCC(=O)N[C@@H]2CCCN(c3ncnc4[nH]ccc34)C2)c1 [Example 302]	100 to 999 nM
O=C(CNc1cccc(-c2nnco2)c1)NC1CCCN(c2ncnc3[nH]ccc23)C1 (centres unmarked) [Example 349]	> 10000 nM
Cn1ccc2c(N3CCC[C@@H](NC(=O)[C@H](Nc4cc(F)cc(Cl)c4)C4CC4)C3)ncnc21 [Example 136, (R)-2-(3-chloro-5-fluorophenylamino)-2-cyclopropyl-N—((R)-1-(7-methyl-7H-pyrrolo[2,3-d]pyrimidin-4-yl)piperidin-3-yl)acetamide]	100 to 999 nM
O=C(CNc1cccc(N2CCCC2=O)c1)NC1CCCN(c2ncnc3[nH]ccc23)C1 (centres unmarked) [Example 338]	1000 to 10000 nM
CN(C)c1cccc(NCC(=O)NC2CCCN(c3ncnc4[nH]ccc34)C2)c1 (centres unmarked) [Example 61, (N-(1-(7H-pyrrolo[2,3-d]pyrimidin-4-yl)piperidin-3-yl)-2-(3-(dimethylamino)phenylamino)acetamide)]	1000 to 10000 nM
O=C(CNc1cccc(Cl)c1Cl)N[C@@H]1CCCN(c2ncnc3[nH]ccc23)C1 [Example 299]	100 to 999 nM
CCC[C@@H](Nc1ccccc1C(C)C)C(=O)N[C@@H]1CCCN(c2ncnc3[nH]ccc23)C1 [Example 279]	100 to 999 nM
CC(C)(C)C1CCN(S(=O)(=O)c2ccccc2NCC(=O)N[C@@H]2CCCN(c3ncnc4[nH]ccc34)C2)CC1 [Example 265]	< 100 nM
CC(C)CC[C@@H](Nc1ccccc1)C(=O)N[C@@H]1CCCN(c2ncnc3[nH]ccc23)C1 [Example 122, (R)—N—((R)-1-(7H-pyrrolo[2,3-d]pyrimidin-4-yl)piperidin-3-yl)-5-methyl-2-(phenylamino)hexanamide]	1000 to 10000 nM
COc1ccc(C(C)(C)C)cc1NCC(=O)N[C@@H]1CCCN(c2ncnc3[nH]ccc23)C1 [Example 442]	1000 to 10000 nM
O=C([C@H](Nc1cc(F)cc(Cl)c1)C1CC1)N1CCCCC12CCCN(c1ncnc3[nH]ccc13)C2 (some centres unmarked) [Example 379]	1000 to 10000 nM
O=C(NC1CCCN(c2ncnc3[nH]ccc23)C1)C1NCc2ccccc21 (centres unmarked) [Example 361]	> 10000 nM

SMILES	IC50
COc1ccc(Cl)cc1NCC(=O)N[C@@H]1CCCN(c2ncnc3[nH]ccc23)C1 [Example 312]	100 to 999 nM
O=C(CNc1ccc(Cl)cc1Cl)N[C@@H]1CCCN(c2ncnc3[nH]ccc23)C1 [Example 317]	100 to 999 nM
CC[C@H](C)[C@@H](Nc1ccccc1)C(=O)N[C@@H]1CCCN(c2ncnc3[nH]ccc23)C1 [Example 115, (2R,3S)—N—((R)-1-(7H-pyrrolo[2,3-d]pyrimidin-4-yl)piperidin-3-yl)-3-methyl-2-(phenylamino)pentanamide]	100 to 999 nM
COc1ccc(C)cc1NCC(=O)N[C@@H]1CCCN(c2ncnc3[nH]ccc23)C1 [Example 270]	< 100 nM
CCC[C@@H](Nc1cc(F)cc(Cl)c1)C(=O)N[C@@H]1CCCN(c2ncnc3[nH]ccc23)C1 [Example 197]	< 100 nM
O=C(CNc1ccccc1)NC1CCCN(c2ncnc3[nH]cc(Cl)c23)C1 (centres unmarked) [Example 462]	> 10000 nM
Cc1ccc(C)c(NCC(=O)N[C@@H]2CCCN(c3ncnc4[nH]ccc34)C2)c1 [Example 427]	1000 to 10000 nM
O=C(CNc1ccccc1S(=O)(=O)N1CCC(F)(F)CC1)N[C@@H]1CCCN(c2ncnc3[nH]ncc23)C1 [Example 176]	< 100 nM
Cc1c(Cl)cccc1NCC(=O)N[C@@H]1CCCN(c2ncnc3[nH]ccc23)C1 [Example 261]	100 to 999 nM
O=C(N[C@@H]1CCCN(c2ncnc3[nH]ccc23)C1)C(CC(F)(F)F)Nc1ccccc1 (stereo partly drawn) [Example 123, (N—((R)-1-(7H-pyrrolo[2,3-d]pyrimidin-4-yl)piperidin-3-yl)-4,4,4-trifluoro-2-(phenylamino)butanamide)]	1000 to 10000 nM
CC1CC(C)CN(S(=O)(=O)c2ccccc2NCC(=O)N[C@@H]2CCCN(c3ncnc4[nH]ncc34)C2)C1 (some centres unmarked) [Example 224]	< 100 nM
O=C(N[C@@H]1CCCN(c2ncnc3[nH]ccc23)C1)[C@@H](CC1CC1)Nc1cc(F)cc(Cl)c1 [Example 393]	1000 to 10000 nM
CC[C@@H](Nc1ccccc1)C(=O)N[C@@H]1CCCN(c2ncnc3[nH]ccc23)C1 [Example 114, (R)—N—((R)-1-(7H-pyrrolo[2,3-d]pyrimidin-4-yl)piperidin-3-yl)-2-(phenylamino)butanamide]	< 100 nM
O=C(CNc1cccc2ccccc12)N[C@@H]1CCCN(c2ncnc3[nH]ccc23)C1 [Example 274]	100 to 999 nM
O=C(CNc1cccc(F)c1F)N[C@@H]1CCCN(c2ncnc3[nH]ccc23)C1 [Example 422]	100 to 999 nM
O=C(CNc1ccccc1S(=O)(=O)N1CCOCC1)N[C@@H]1CCCN(c2ncnc3[nH]ccc23)C1 [Example 243]	< 100 nM
CCC[C@@H](Nc1cccc(Cl)c1)C(=O)N[C@@H]1CCCN(c2ncnc3[nH]ccc23)C1 [Example 215]	< 100 nM
CS(=O)(=O)CC[C@@H](Nc1ccccc1)C(=O)N[C@@H]1CCCN(c2ncnc3[nH]ccc23)C1 [Example 116, (R)—N—((R)-1-(7H-pyrrolo[2,3-d]pyrimidin-4-yl)piperidin-3-yl)-4-(methylsulfonyl)-2-(phenylamino)butanamide]	1000 to 10000 nM
CC1CCN(S(=O)(=O)c2ccccc2NCC(=O)N[C@@H]2CCCN(c3ncnc4[nH]ncc34)C2)CC1 [Example 212]	< 100 nM
O=C(N[C@@H]1CCCN(c2ncnc3[nH]ccc23)C1)[C@@H]1CCc2ccccc2N1 [Example 15, (S)—N—((R)-1-(7H-pyrrolo[2,3-d]pyrimidin-4-yl)piperidin-3-yl)-1,2,3,4-tetrahydroquinoline-2-carboxamide]	1000 to 10000 nM

SMILES	IC50
O=C(CNc1ccccc1Cl)NC1CCCN(c2ncnc3[nH]ccc23)C1 (centres unmarked) [Example 20, (N-(1-(7H-pyrrolo[2,3-d]pyrimidin-4-yl)piperidin-3-yl)-2-(2-chlorophenylamino)acetamide)]	100 to 999 nM
C[C@H](Nc1ccccc1)C(=O)NC1CCCN(c2ncnc3[nH]ccc23)C1 (stereo partly drawn) [Example 102, (2S)—N-(1-(7H-pyrrolo[2,3-d]pyrimidin-4-yl)piperidin-3-yl)-2-(phenylamino)propanamide]	> 10000 nM
O=C(CNc1ccccc1OC1CCCCCC1)N[C@@H]1CCCN(c2ncnc3[nH]ccc23)C1 [Example 251]	< 100 nM
Cc1cccc(NCC(=O)N[C@@H]2CCCN(c3ncnc4[nH]ccc34)C2)c1 [Example 237]	100 to 999 nM
O=C(CNc1cc(F)c(F)c(F)c1)N[C@@H]1CCCN(c2ncnc3[nH]ccc23)C1 [Example 285]	100 to 999 nM
O=C(Nc1ccccc1)C(=O)NC1CCCN(c2ncnc3[nH]ccc23)C1 (centres unmarked) [Example 4]	> 10000 nM
N#Cc1ccccc1NCC(=O)N[C@@H]1CCCN(c2ncnc3[nH]ccc23)C1 [Example 433]	1000 to 10000 nM
Cc1ccc(NCC(=O)N[C@@H]2CCCN(c3ncnc4[nH]ccc34)C2)c(Cl)c1 [Example 430]	1000 to 10000 nM
Cc1cccc(NCC(=O)NC2CCCN(c3ncnc4[nH]ccc34)C2)c1C (centres unmarked) [Example 84, (N-(1-(7H-pyrrolo[2,3-d]pyrimidin-4-yl)piperidin-3-yl)-2-(2,3-dimethylphenylamino)acetamide)]	100 to 999 nM
O=C(CNc1ccccc1)NC1CCCN(c2ncnc3[nH]cnc23)C1 (centres unmarked) [Example 464]	> 10000 nM
O=C(CNc1ccccc1S(=O)(=O)N1CCOCC1)N[C@@H]1CCCN(c2ncnc3[nH]ncc23)C1 [Example 242]	< 100 nM
CC(C)(C)C1CCN(S(=O)(=O)c2ccccc2NCC(=O)N[C@@H]2CCCN(c3ncnc4[nH]ncc34)C2)CC1 [Example 256]	< 100 nM
O=C(CNc1cccc2cn[nH]c12)NC1CCCN(c2ncnc3[nH]ccc23)C1 (centres unmarked) [Example 75]	1000 to 10000 nM
C[C@@H](O)[C@@H](Nc1cc(Cl)cc(Cl)c1)C(=O)N[C@@H]1CCCN(c2ncnc3[nH]ncc23)C1 [Example 164]	< 100 nM
O=C(CNc1cc(Cl)ccc1Cl)NC1CCCN(c2ncnc3[nH]ccc23)C1 (centres unmarked) [Example 35, (N-(1-(7H-pyrrolo[2,3-d]pyrimidin-4-yl)piperidin-3-yl)-2-(2,5-dichlorophenylamino)acetamide)]	100 to 999 nM
CC(C)(C)Oc1ccccc1NCC(=O)N[C@@H]1CCCN(c2ncnc3[nH]ccc23)C1 [Example 384]	100 to 999 nM
CCOc1cccc(NCC(=O)N[C@@H]2CCCN(c3ncnc4[nH]ccc34)C2)c1 [Example 316]	100 to 999 nM
CN1CCN(c2cccc(NCC(=O)NC3CCCN(c4ncnc5[nH]ccc45)C3)c2)CC1 (centres unmarked) [Example 343]	> 10000 nM
O=C(N[C@@H]1CCCN(c2ncnc3[nH]ccc23)C1)[C@@H](CO)Nc1cc(F)cc(Cl)c1 [Example 424]	1000 to 10000 nM
